The values below come from PMC10605077, “In Vitro and In Silico Antiviral Activity of Di-Halogenated Compounds Derived from L-Tyrosine against Human Immunodeficiency Virus 1 (HIV-1)” (Current Issues in Molecular Biology, 2023).

A short description of one series: MTT cytotoxicity assay. It is filed as cell-based. Conditions: human; TZM-bl cells, MTT, 48 h. As for the experimental part: The in vitro cytotoxic effect of the di-halogenated compounds on TZM-bl cells was determined with the MTT (3-(4,5-Dimethylthiazol-2-yl)-2,5-diphenyltetrazolium bromide) assay (Sigma-Aldrich, St. Louis, MO, USA). For this purpose, 1.2 × 10^5 cells/well were seeded in 96-well plates, which were incubated at 37 °C and 5% CO2 for 24 h. DMEM was used as a negative control and serial two-fold dilutions of the compounds were performed at 9.37 to 300 μM in DMEM supplemented with 5% FBS. A total of 100 μL/well of each dilution was added and incubated for 48 h. Subsequently, the cells were washed 2 times with 1X PBS, and 30 μL of MTT solution (2 mg/mL) was added and incubated for 2 h at 37 °C, in a light-protected culture. Then, 100 µL of DMSO was added to dissolve the formazan crystals, placed in shaking for 15 min, and absorbance reading was performed at 570 nm, using the Microplate Spectrophotometer (Thermo Scientific™ Multiskan™ GO, Waltham, MA, USA). Two independent experiments evaluated each experimental condition in quadruplicate (n = 8). The percentage of viability was calculated concerning the absorbance of the controls without a compound (100% viability). The 50% cytotoxic concentration was defined as the concentration of each compound that can reduce cell viability to 50% of the untreated cell control. CC50 was calculated and analyzed with GraphPad Prism version 8.0.1 (GraphPad Software, Inc., San Diego, CA, USA).
Background: Tetrazolium assays rely on reduction of a dye to a coloured formazan, in cell work by metabolically active cells.

The nature of series [1]: Viability assay of PBMC, flow cytometry with viability dye. As to conditions: human, PBMC stimulated with PHA and IL-2; all concentrations tested (18.75 μM up to 150 μM), 7 days; read-out: viability level on PBMCs. It counts as cell-based, Human. As for the experimental part: PBMCs were thawed and let in the culture in RPMI with 10% fetal bovine serum (FBS) (Gibco, Grand Island, NY, USA) for 24 h before each experiment. Cells were stimulated for 48 h with 8 μg/mL of Phytohemagglutinin-PHA (Sigma-Aldrich, St. Louis, MO, USA) and 50 UI/mL of IL-2 (Peprotech, Rocky Hill, CT, USA). In the presence of various concentrations of di-halogenated compounds derived from L-Tyrosine, 2 × 10^5 cells per well were treated and resuspended in 200 µL of fresh medium with 20 UI/mL of IL-2 and incubated in 96-well culture plates for 7 days. After 7 days post-treatment, cell viability was determined using flow cytometry. Briefly, cells were stained with fixable viability dye eFluor 506 (eBioscience, Leicestershire, UK) as detailed in the manufacturer’s protocol for 30 min in the dark. Later, cells were washed and resuspended in PBS, and the percentage of viable cells was measured instead in the LS Fortessa cytometer (BD Biosciences, Franklin Lakes, NJ, USA). Data were analyzed using FlowJo version 10.5.3 (FlowJo, LLC, Ashland, OR, USA).
For orientation: In flow cytometry, cells or beads pass a laser one at a time.

For another series, the system named is HIV-1 BaL (R5). Put plainly: Anti-HIV activity in infected TZM-bl cells (luciferase), pre- and post-infection treatment. It is filed as cell-based, Human Immunodeficiency Virus Type 1 (HIV-1). Here is the method: (§1) TZM-bl cells were plated in a flat-bottom 96-well plate (Corning Inc., Corning, New York, NY, USA) at the concentration of 1.2 × 10^5 cells/well and incubated for 24 h at 37 °C before the addition or not of each compound at non-cytotoxic concentrations (pre-infection treatment). Then, 1 h later the treatment was removed, and the infection was performed by adding 10 ng/mL of HIV-1IIIB p24 (X4) or 2 ng/mL of HIV-1 BaL (R5). After 3 h, the virus was removed and washed, and the compound dilutions were added again (post-infection treatment). Additionally, three wells were left for the negative control (cells without treatment or infection), the positive control of infection (cells infected with the virus without treatment), and the positive control of inhibition (AZT). Antiviral activity was quantified 48 h after treatment by measuring luciferase activity, which is directly proportional to the number of infectious virus particles in the sample [23]. The luciferase activity was quantified via luminescence emitted by the cells using Bright-GloTM Luciferase Assay System (Promega Corp., Madison, WI, USA), following the manufacturer’s instructions. Briefly, 100 μL of the reagent was added to 100 μL of TZM-bl cells and incubated for at least 2 min, protected from light. Relative light units (RLUs) were measured using the multi-mode plate reader (Thermo ScientificTM VarioskanTM LUX). Each experimental condition was performed in triplicate in two independent experiments (n = 6). The percentage inhibition was calculated as follows: 100 − (RLU of treated cells − RLU of uninfected cells/RLU of infection control − RLU of uninfected cells) × 100.

The next series deals with HIV-1IIIB (X4). Described as above. It counts as cell-based, Human Immunodeficiency Virus Type 1 (HIV-1). Conditions: TZM-bl cells. Here is the method: as §1
In the next series the test system is HIV-1 BaL. The series is described as follows: Anti-HIV activity in PBMC, intracellular p24 by flow cytometry. It counts as cell-based. As to conditions: 7 days. As for the experimental part: In the presence of various concentrations of the most bioactive compounds, 1×10^6 PBMCs previously stimulated with 8 μg/mL of PHA and 50UI/mL of IL-2 were treated for 1 h. […] After spinoculation, cells were washed twice with PBS 1x to remove free virions, and then, fresh medium supplemented with 20 UI/mL of IL-2, with or without the di-halogenated compounds derived from L-Tyrosine dilutions, was added. Cells were plated in 96-well culture plates and incubated for 7 days. […] In addition, antiviral activity was also assessed by measuring intracellular p24 in harvested cells. Briefly, cells were stained with fixable viability dye eFluor 506 (eBioscience, Leicestershire, UK), CD3 (UCHT1; Thermo Scientific, Wilmington, DE, USA), CD4 (RPA-T4; BD Biosciences, San Jose, CA, USA), and p24 PE (KC57; Beckman Coulter, Pasadena, CA, USA), as detailed in the manufacturer’s protocol. Later, cells were washed and resuspended in PBS, and the lecture was measured instead in the LS Fortessa cytometer (BD Biosciences, Franklin Lakes, NJ, USA). Data were analyzed using FlowJo version 10.5.3 (FlowJo, LLC, Ashland, OR, USA).

The structures appear in SMILES notation.

As for `COc1c(Cl)cc(C[C@@H](C(=O)O)N(C)C)cc1Cl` [TODC-2M], the 50% cytotoxic concentration (CC50) (as a rule, the concentration that lowers cell viability or growth by half) at 48 h in “MTT cytotoxicity assay” is over 300 µM. Moreover, the viability (usually a read-out of living cells in per cent, often relative to untreated cells) at 7 days in series [1] was over 90%. Also, the IC50 (commonly the concentration needed to halve the response being measured) in the series on HIV-1 BaL (R5) (Human immunodeficiency virus 1, BAL, TZM-bl, 48 h, HIV-1 BaL (R5), TZM-bl cells, luciferase) was 67.4 µM; in the series with HIV-1IIIB (X4) (Human immunodeficiency virus 1, HIV-1IIIB (X4), luciferase, 48 h) it was about 39.1 µM. The inhibition (commonly the change of the read-out against control, counted positive when it falls) at 18 µM in the series with HIV-1 BaL (R5) (Human immunodeficiency virus 1, BAL, 18 µM, TZM-bl cells, read-out: Percentage inhibition of HIV-1 BaL replication) is 38%; in the series on HIV-1IIIB (X4) (Human immunodeficiency virus 1, TZM-bl, 18 µM, read-out: Percentage inhibition of HIV-1IIIB (X4 strain) replication) it was -18.5%. For the same molecule, the inhibition at 37 µM is 46.4% in the series with HIV-1 BaL (R5) (Human immunodeficiency virus 1, BAL, 37 µM, TZM-bl cells, read-out: Percentage inhibition of HIV-1 BaL replication) and 40.6% in the series on HIV-1IIIB (X4) (Human immunodeficiency virus 1, TZM-bl, 37 µM, read-out: Percentage inhibition of HIV-1IIIB (X4 strain) replication). The inhibition at 75 µM in the series on HIV-1 BaL (R5) (Human immunodeficiency virus 1, BAL, 75 µM, TZM-bl cells, read-out: Percentage inhibition of HIV-1 BaL replication) amounted to 60.5%; in the series on HIV-1IIIB (X4) (Human immunodeficiency virus 1, TZM-bl, 75 µM, read-out: Percentage inhibition of HIV-1IIIB (X4 strain) replication), 62.8%; in the series with HIV-1 BaL (Human immunodeficiency virus 1, BAL, PBMC, 168 h, 75 μM, read-out: inhibition of HIV-1 BaL replication in PBMC, flow cytometry (intracellular p24)), 69.6%. Further, the inhibition at 150 µM in the series with HIV-1 BaL (R5) (Human immunodeficiency virus 1, BAL, 150 µM, TZM-bl cells, read-out: Percentage inhibition of HIV-1 BaL replication) is 61.1%; in the series on HIV-1IIIB (X4) (Human immunodeficiency virus 1, TZM-bl, 150 µM, read-out: Percentage inhibition of HIV-1IIIB (X4 strain) replication), 99.6%; in the series on HIV-1 BaL (Human immunodeficiency virus 1, BAL, PBMC, 168 h, 150 µM, read-out: inhibition of HIV-1 BaL replication in PBMC, flow cytometry (intracellular p24)) it was over 60%. The molecule also registered an SI with HIV-1 BaL (R5) (selectivity index against HIV-1 BaL (CC50 and IC50 of Table 3)) of over 4.45. The inhibition at 18.75 µM in the series with HIV-1 BaL (Human immunodeficiency virus 1, BAL, PBMC, 168 h, 18.75 μM, read-out: inhibition of HIV-1 BaL replication in PBMC, flow cytometry (intracellular p24)) was 50.6%. Besides, the “inhibition of HIV-1 BaL replication in PBMC, flow cytometry (intracellular p24)” value in the series with HIV-1 BaL (all concentrations) is recorded as “over 50%”.
